These results are taken from patent publication US12685742B2, “Application of stachyose in preparation of drug for treating castration-resistant prostate cancer” (priority 2021, dated 2026).

The subject of test [1] is C-MYC-over-expressed prostate cancer mouse model. Nature of the test: C-MYC (Hi-Myc)-over-expressed spontaneous prostate cancer mouse model, prostate weight and HE staining. It is filed as in vivo, mice.
Experimental: A C-MYC (Hi-Myc)-over-expressed spontaneous prostate cancer mouse model was constructed, and at 4 months, the mice developed mPIN/Cancer transition. At the moment, the mice were randomly divided into an NC control group (intragastrical administration with solvents) and an Enza administration group. Then, intragastrical administration was performed every three days, and Enza administration was performed at 10 mg/Kg for a total of 30 days. Then, the necks of some mice were severed, and the prostate cancers of the mice were taken, photographed and weighed. […] Then, mice (mice aged 6 months) were randomly divided into: an NC control group (intragastrical administration with solvents all the time), an Enza single-drug group 1, an Enza single-drug group 2, a Stac single-drug group 1, a Stac single-drug group 2 and an Enza and Stac combination group, the corresponding administration treatment was performed, and all mice were intragastrically administered once every three days. The dosage of Enza in the Enza single-drug group 1 was kept at 10 mg/Kg each time, the dosage of Enza in the Enza single-drug group 2 was kept at 90 mg/Kg each time, the dosage of Stac in the Stac single-drug group 1 was kept at 80 mg/Kg each time, the dosage of Stac in the Stac single-drug group 2 was kept at 90 mg/Kg each time, the dosages of Enza and Stac in the Enza and Stac combination group were kept at 10 mg/Kg and 80 mg/Kg each time, and the administration was performed for a total of 30 days. Then, the necks of the mice were severed, and the prostate cancers of the mice were taken, photographed, weighed and subjected to experiments including immunohistochemistry.
Another test has as its system LNCaP cells. In words: Production of DTP/DTEP cells from LNCaP cells by EPI and Enza, cell counting. The format is cell-based. To be noted: 1×10^6 LNCaP cells seeded, one value given for EPI and Enza; for number of LNCaP-DTP cells as percentage of the initial seed cells: 9 days drug treatment; for number of LNCaP-DTEP cells as percentage of the initial seed cells: 33 days drug treatment. The source says:
In the period, for replacement, a fresh drug-containing medium was used every three days for culture, some cells (DTP cells) were collected for subsequent experiments after 9 days, and the remaining cells continued to be treated with drugs. In the period, for replacement, a fresh drug-containing medium was used every three days for culture, and DTEP cells were collected after 33 days for subsequent experiments. After the DTP and DTEP cells were produced, the cells were digested and counted to calculate the percentage of the cells in 1×10^6 cells. The collected NC, DTP and DTEP cells were used for subsequent Western Blot experiments: the three groups of cells were subjected to cell lysis, protein extraction and quantification, SDS-PAGE gel electrophoresis, membrane transfer, blocking, primary antibody incubation, secondary antibody incubation and development, then, the expression changes of AR-FL and its related target proteins and AR-Vs and its related target proteins were observed, and the expression changes of cell cycle-related proteins were observed. Flow cytometry: dead cells were stained by a PI-stained cycle kit, and cell cycle changes were determined by a flow cytometry.

The next test has as its system PRDX5. Nature of the test: PRDX5 immunohistochemistry of prostate tissue slices, C-MYC-over-expressed prostate cancer mouse model. The format is in vivo, mice. Conditions: 30 d after drug tolerance relapse, immunohistochemical positive cells. The source says: A C-MYC (Hi-Myc)-over-expressed spontaneous prostate cancer mouse model was constructed, and at 4 months, the mice developed mPIN/Cancer transition. […] Then, the necks of some mice were severed, and the prostate cancers of the mice were taken, photographed and weighed. […] Then, the necks of the mice were severed, and the prostate cancers of the mice were taken, photographed, weighed and subjected to experiments including immunohistochemistry.

The next test deals with L-DTP (Enza) cells. In words: CCK8 cell survival and CI value (Calcusyn) in drug-tolerant L-DTP (Enza) cells. To be noted: L-DTP (Enza) cells produced after continuous Enza for 9 days. It is filed as cell-based. From the text: (§1) Finally, Calcusyn software was used for calculating a CI value in L-DTP cells.
The subject of the next test is AR. Nature of the test: AR immunohistochemistry of prostate tissue slices, C-MYC-over-expressed prostate cancer mouse model. The format is in vivo, mice. To be noted: 30 d after drug tolerance relapse, immunohistochemical positive cells. The source says:
Then, the necks of some mice were severed, and the prostate cancers of the mice were taken, photographed and weighed. […] Then, the necks of the mice were severed, and the prostate cancers of the mice were taken, photographed, weighed and subjected to experiments including immunohistochemistry.

The subject of the next test is L-DTP (EPI) cells. In words: CCK8 cell survival and CI value (Calcusyn) in drug-tolerant L-DTP (EPI) cells. The format is cell-based. To be noted: L-DTP (EPI) cells produced after continuous EPI for 9 days.
Source text: as §1

As to `CNC(=O)c1ccc(N2C(=S)N(c3ccc(C#N)c(C(F)(F)F)c3)C(=O)C2(C)C)cc1F` [Enza, Enzalutamide], in test [1] (Enza 10 mg/Kg intragastric every three days, 30 days, from 4 months of age), the “prostate weight compared with NC control group” value is “reduced by half”. The “Average of prostate weights of mice” value was found to be 54.42 mg in test [1] (Enza 10 mg/Kg, 30 d of administration after drug tolerance relapse, intragastric every three days); 53.83 mg in test [1] (Enza 90 mg/Kg, 30 d of administration after drug tolerance relapse, intragastric every three days); 77.1 mg in test [1] (continued Enza administration, after 90 days, drug tolerance relapse (NC control 98.2 mg)); 43.9 mg in test [1] (continuous Enza 10 mg/Kg intragastric every three days, 30 days (NC control 88.7 mg)). Moreover, the “number of LNCaP-DTP cells as percentage of the initial seed cells” value in the test with LNCaP cells amounted to 103.11%. Besides, in the test on LNCaP cells, the “number of LNCaP-DTEP cells as percentage of the initial seed cells” value worked out at 110.92%. The PRDX5 expression/% in the test with PRDX5 (Enza 10 mg/Kg) was found to be 78.4%; with PRDX5 (Enza 90 mg/Kg), 80.0%. The inhibition rate entry in the test with L-DTP (Enza) cells is reported as “no obvious inhibiting effect”.

Consider `OC[C@H]1O[C@H](OC[C@H]2O[C@H](OC[C@H]3O[C@H](O[C@]4(CO)O[C@H](CO)[C@@H](O)[C@@H]4O)[C@H](O)[C@@H](O)[C@@H]3O)[C@H](O)[C@@H](O)[C@H]2O)[C@H](O)[C@@H](O)[C@H]1O` [Stac, Stachyose], for which the “Average of prostate weights of mice” value amounted to 50.86 mg in test [1] (Stac 80 mg/Kg, 30 d of administration after drug tolerance relapse, intragastric every three days) and 47.50 mg in test [1] (Stac 90 mg/Kg, 30 d of administration after drug tolerance relapse, intragastric every three days). Besides, the “treatment effect of single use after drug tolerance (prostate weight)” value in test [1] (single use of Stac compared with single use of Enza, after drug tolerance relapse) is given as “better than that of the single use of Enza”. The figures for the AR expression/% with AR (Stac 80 mg/Kg) and with AR (Stac 90 mg/Kg) were 61.5% and 57.4%, respectively. The inhibition rate is on record as 67.48% with L-DTP (EPI) cells and 62.47% in the test on L-DTP (Enza) cells. Also, the PRDX5 expression/% in the test with PRDX5 (Stac 80 mg/Kg) amounted to 68.2%; in the test with PRDX5 (Stac 90 mg/Kg), 60.9%.

As to `CC(C)(c1ccc(OCC(O)CO)cc1)c1ccc(OCC(O)CCl)cc1` (stereo not drawn) [EPI, EPI-001], in the test with LNCaP cells, the “number of LNCaP-DTP cells as percentage of the initial seed cells” value was determined as 103.11% and the “number of LNCaP-DTEP cells as percentage of the initial seed cells” value was determined as 110.92%. The inhibition rate result in the test with L-DTP (EPI) cells was “no obvious inhibiting effect”.
